Bridge positions count the residues as written; N and C are the ends. Peptide text beside a SMILES is read from it.
Assays:
[1] = system: Kv1.1/Y256A; assay: Whole-cell patch clamp, Tyr-to-Ala mutant homologous to Kv1.3 Y339; type: cell-based, human; conditions: 10 μM MrVIII, +30 mV, 500 ms, holding −80 mV, mean ± SD, n = 4–6
Text: (§1) Building on the identification of key amino acid residues in Kv1.3 channel that interact with MrVIII through alanine-scanning mutagenesis, we extended our analysis to explore these residues across other Kv1 subfamily channels. […] However, MrVIII retained substantial inhibitory potency on Kv1.2/Y266A mutant, albeit without fully blocking the channel current. […] The profound reduction in MrVIII's effect across homologous mutants supports the idea that it binds to a conserved region.
(§2) The cDNA of hKv1.1, hKv1.2, hKv1.3, rKv1.4, hKv1.5, mKv1.6, and hKv1.7 were subcloned into mammalian expression vectors pcDNA3.1 or pCMV-blank vectors, as well as other plasmids described previously ([35]). Channel mutants were generated by site-directed mutations. Briefly, the parental channel plasmid was amplified using a pair of oppositely directed primers harboring the designed mutation site, with KOD Fx (TOYOBO Co, Ltd). The resulting PCR mix was treated with FastDigest DpnI (Thermo Fisher Scientific) to remove the methylated template. Ten microliters of the digested product was then used to transform 100 μl E. coli DH5α competent cells. […]
(§3) CHO-K1 cells were selected for expressing Kv channels due to their lack of endogenous Kv channels, while HEK293 or ND7/23 cells were used for Nav and Cav channel expression. […] After 4 to 6 h transfection, cells were seeded onto poly-lysine–coated coverslips, and 24 to 36 h later, transfected cells were ready for patch-clamp analysis. […]
(§4) For Kv current recordings, the bath solution contained (in mM) the following: 140 NaCl, 5 KCl, 1 MgCl2, 2 CaCl2, 10 glucose, and 10 Hepes (pH 7.3, adjusted with NaOH), and the pipette solution contained (in mM) the following: 140 KCl, 2.5 MgCl2, 11 EGTA, and 10 Hepes (pH 7.3, adjusted with KOH). […] Whole cell conductance (G) at each depolarizing voltage (V) was determined using the equation: G = I/(V−Vrev), where I is the current amplitude, and Vrev is the reversal potential. […] The steady-state fast inactivation of Kv1.3 was measured using a two-pulses protocol. […]

[2] = system: Kv1.5/Y368A; assay: as above; type: cell-based, human; conditions: 10 μM MrVIII, +30 mV, 500 ms, holding −80 mV, mean ± SD, n = 4–6
Text: as §1, §2, §3, §4

[3] = system: Kv1.7/Y253A; assay: as above; type: cell-based, human; conditions: 10 μM MrVIII, +30 mV, 500 ms, holding −80 mV, mean ± SD, n = 4–6
Text: as §1, §2, §3, §4

[4] = target: T1, Kv1.7/A256T (Homo sapiens, UniProt Q96RP8, A256T); assay: Whole-cell patch clamp, Kv1.7 point mutant; type: cell-based
T1 construct: expressed in transfected cells; host or cells: CHO-K1
T1 sequence (Q96RP8 whole entry A256T): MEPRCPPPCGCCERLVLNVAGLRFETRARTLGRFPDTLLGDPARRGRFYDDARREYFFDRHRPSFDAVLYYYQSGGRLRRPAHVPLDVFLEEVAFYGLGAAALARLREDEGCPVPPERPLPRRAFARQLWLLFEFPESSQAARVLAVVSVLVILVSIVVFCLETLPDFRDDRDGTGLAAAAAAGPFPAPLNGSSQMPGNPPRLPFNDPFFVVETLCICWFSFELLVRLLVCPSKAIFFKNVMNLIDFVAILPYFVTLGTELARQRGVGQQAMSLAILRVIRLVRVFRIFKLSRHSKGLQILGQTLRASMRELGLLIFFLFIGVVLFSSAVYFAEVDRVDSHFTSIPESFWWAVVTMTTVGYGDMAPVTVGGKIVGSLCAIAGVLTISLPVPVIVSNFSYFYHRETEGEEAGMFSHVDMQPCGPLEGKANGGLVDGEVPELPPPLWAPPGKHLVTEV
Text: This observation prompted further exploration of the potential function of the homologous residue in the Kv1.7 channel, where the corresponding site is occupied by an alanine.
The cDNA of hKv1.1, hKv1.2, hKv1.3, rKv1.4, hKv1.5, mKv1.6, and hKv1.7 were subcloned into mammalian expression vectors pcDNA3.1 or pCMV-blank vectors, as well as other plasmids described previously ([35]). Channel mutants were generated by site-directed mutations. Briefly, the parental channel plasmid was amplified using a pair of oppositely directed primers harboring the designed mutation site, with KOD Fx (TOYOBO Co, Ltd). […]
as §3
For Kv current recordings, the bath solution contained (in mM) the following: 140 NaCl, 5 KCl, 1 MgCl2, 2 CaCl2, 10 glucose, and 10 Hepes (pH 7.3, adjusted with NaOH), and the pipette solution contained (in mM) the following: 140 KCl, 2.5 MgCl2, 11 EGTA, and 10 Hepes (pH 7.3, adjusted with KOH). […] The steady-state fast inactivation of Kv1.3 was measured using a two-pulses protocol. […]

CC[C@H](C)[C@@H]1NC(=O)[C@H](Cc2ccc(O)cc2)NC(=O)[C@H](CCC(N)=O)NC(=O)[C@@H]2CCCN2C(=O)[C@@H]2CSSC[C@H](NC(=O)[C@H](C)NC(=O)[C@H](CO)NC(=O)[C@H](CCC(=O)O)NC(=O)[C@H](CCC(=O)O)NC(=O)[C@@H](N)[C@@H](C)O)C(=O)NCC(=O)NCC(=O)N[C@@H](Cc3ccccc3)C(=O)N[C@@H](CC(N)=O)C(=O)N[C@@H](C)C(=O)N[C@@H](CCCNC(=N)N)C(=O)N[C@H]3CSSC[C@H](NC1=O)C(=O)N[C@@H](CCCCN)C(=O)NCC(=O)N[C@@H](Cc1c[nH]c4ccccc14)C(=O)N[C@@H](CCCNC(=N)N)C(=O)N[C@@H]([C@@H](C)O)C(=O)N[C@@H](CCCCN)C(=O)N[C@@H](CCCNC(=N)N)C(=O)N[C@H](C(=O)N[C@@H](CC(C)C)C(=O)N[C@@H](CC(N)=O)C(=O)N1CCC[C@H]1C(=O)O)CSSC[C@H](NC(=O)[C@H](CCCCN)NC(=O)[C@H](Cc1c[nH]cn1)NC(=O)[C@H](CC(C)C)NC(=O)[C@@H]1CCCN1C3=O)C(=O)N2 [MrVIII] (H-TEESACGGFNARCPLHKCCPQYICKGWRTKRCLNP-OH; disulfide 6-19, 13-24, 18-32; N-terminus and C-terminus assumed)
inhibition of Kv1.1/Y256A current [1]: −9.5 ± 4.4% | inhibition of Kv1.5/Y368A current [2]: 19.1 ± 6.2% | inhibition of Kv1.7/Y253A current [3]: −9.4 ± 13.6% | IC50 ([4]; +30 mV, mean ± SD, n = 6, SD, read-out: IC50, Kv1.7/A256T current (full inhibition)): 138 ± 50.3 nM | potency on Kv1.7/A256T weaker than on the Kv1.3 channel ([4]; ratio of IC50 values): approximately 28 fold

From paper PMC11984586, “A novel spider toxin as a selective antagonist of the Kv1 subfamily of voltage-gated potassium channels through gating modulation” (The Journal of Biological Chemistry, 2025)
